Among the data in patent US20160376286A1, “Pyrimidin-4-one derivatives and their use in the tratement, amelioration or prevention of a viral disease” (priority 2011, published 2016) are melting point and Kd values, retold here.

Data set [1] concerns the target PB2 cap binding domain (CBD) of an avian H5N1 influenza virus (Influenza A virus, UniProt Q9Q0V1). Put plainly: biochemical.

Chain of PB2 cap binding domain (CBD) of an avian H5N1 influenza virus (Q9Q0V1 318-483 limits assumed): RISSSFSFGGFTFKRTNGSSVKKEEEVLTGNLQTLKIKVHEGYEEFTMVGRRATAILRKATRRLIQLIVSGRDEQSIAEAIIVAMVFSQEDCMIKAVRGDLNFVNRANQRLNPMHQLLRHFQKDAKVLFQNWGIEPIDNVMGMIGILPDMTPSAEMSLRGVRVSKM

The molecule `O=C(NO)c1cc(NS(=O)(=O)Cc2ccccc2)ccn1` registered a melting point of 187 to 192 °C. In turn, `Cc1c(-c2cnn(C)c2)sc2nc(N)[nH]c(=O)c12` displayed a melting point of 335 to 345 °C.

As to `CCONC(=O)c1ccc(-c2cccc(CN(C)CCCc3ccccc3)c2)cn1.Cl` (hydrate or solvate), the melting point lay in the range of 50 to 55 °C.

`Cc1c(-c2cnn(C)c2)sc2nc(N)[nH]c(=O)c12` [SAV-7603] registered a Kd in data set [1] of 4.2 µM.

On to `Cc1c(-c2cccc(F)c2)sc2nc(N)[nH]c(=O)c12` [SAV-7606], for which, in data set [1], binding was characterised by a dissociation constant (Kd) of 6 µM. Same read-out and setting: next, `Nc1nc2sc(-c3ccccc3)c(Br)c2c(=O)[nH]1` [SAV-7631]: 0.86 µM.

In general, melting point refers to the temperature of the solid-liquid transition. As a reminder, the Kd is the equilibrium constant for the complex coming apart. Higher therefore signals a looser complex.
